Measurements taken from patent US8901118B2, “Compounds and methods for kinase modulation, and indications therefor” (Plexxikon Inc., priority 2010, dated 2014).

Tests used:
BCR-KIT BaF3 cells = target: T1, BCR-KIT BaF3 cells (Homo sapiens, UniProt P10721); assay: BaF3 BCR-KIT cell proliferation assay (ATPlite); format: cell-based; details: read-out: Inhibition of Cell Proliferation IC50, BCR/BaF3 Kit
T1 construct: fused on or other part: P11274 (Breakpoint cluster region protein)
Method in brief: (§1)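 ATP-based luminescence (ATPlite), read after 10 min at room temperature, served as a proxy for cell number, and IC50 was fitted against compound concentration. Before that, cells were treated for 3 days with an 8-point 1:3 dilution series starting at 10 μM. BaF3 cells were plated at 10,000/well without IL-3, and MV-4-11 cells at 25,000/well.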

BCR-NTRK1 BaF3 cells = target: T2, BCR-NTRK1 BaF3 cells (Homo sapiens, UniProt P04629); assay: BaF3 BCR-NTRK1 cell proliferation assay (ATPlite); format: cell-based; details: read-out: Inhibition of Cell Proliferation IC50, BCR/BaF3 TrkA
T2 construct: fused on or other part: P11274 (Breakpoint cluster region protein)
Method in brief: as §1

T2 sequence (P04629 510-781): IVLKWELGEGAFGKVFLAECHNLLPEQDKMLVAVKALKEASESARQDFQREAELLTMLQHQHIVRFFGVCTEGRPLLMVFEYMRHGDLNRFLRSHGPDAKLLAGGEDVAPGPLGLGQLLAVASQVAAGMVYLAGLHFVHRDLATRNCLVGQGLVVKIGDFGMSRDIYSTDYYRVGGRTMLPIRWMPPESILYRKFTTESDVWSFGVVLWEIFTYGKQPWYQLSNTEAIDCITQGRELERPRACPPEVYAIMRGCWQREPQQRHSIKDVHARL
T1 sequence (P10721 589-937): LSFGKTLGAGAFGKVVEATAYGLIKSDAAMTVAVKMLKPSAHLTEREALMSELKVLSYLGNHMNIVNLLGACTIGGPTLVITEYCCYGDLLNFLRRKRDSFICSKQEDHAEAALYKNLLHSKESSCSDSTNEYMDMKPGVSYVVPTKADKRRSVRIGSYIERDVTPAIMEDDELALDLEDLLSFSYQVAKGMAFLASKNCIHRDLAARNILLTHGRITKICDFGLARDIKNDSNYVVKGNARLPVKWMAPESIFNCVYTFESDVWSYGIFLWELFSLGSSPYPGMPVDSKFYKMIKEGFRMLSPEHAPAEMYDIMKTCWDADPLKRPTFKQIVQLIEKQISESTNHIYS

Row | IC50 (BCR-KIT BaF3 cells) | IC50 (BCR-NTRK1 BaF3 cells) | Structure (SMILES)
1 | > 1 µM | > 10 µM | Clc1cnc2[nH]cc(Cc3cnc(NC4CCCCC4)nc3)c2c1 [Compound P-3001, [5-(5-chloro-1H-pyrrolo[2,3-b]pyridin-3-ylmethyl)-pyrimidin-2-yl]-cyclohexyl-amine]
2 | > 1 µM | – | Clc1cnc2[nH]cc(Cc3cnc(NC4CCCC4)nc3)c2c1 [Compound P-3003, [5-(5-Chloro-1H-pyrrolo[2,3-b]pyridin-3-ylmethyl)-pyrimidin-2-yl]-cyclopentyl-amine]
3 | > 1 µM | < 10 µM | FC1(F)CCC(Nc2ncc(Cc3c[nH]c4ncc(Cl)cc34)cn2)CC1 [Compound P-3004]
4 | > 1 µM | > 10 µM | Clc1cnc2[nH]cc(Cc3cnc(NC4CC4)nc3)c2c1 [Compound P-3005, [5-(5-Chloro-1H-pyrrolo[2,3-b]pyridin-3-ylmethyl)-pyrimidin-2-yl]-cyclopropyl-amine]
5 | > 1 µM | < 20 µM | Clc1cnc2[nH]cc(Cc3cnc(NC4CCCCCC4)nc3)c2c1 [Compound P-3006, [5-(5-Chloro-1H-pyrrolo[2,3-b]pyridin-3-ylmethyl)-pyrimidin-2-yl]-cycloheptyl-amine]
6 | > 1 µM | > 10 µM | COc1ccccc1Nc1ncc(Cc2c[nH]c3ncc(Cl)cc23)cn1 [Compound P-3016, [5-(5-Chloro-1H-pyrrolo[2,3-b]pyridin-3-ylmethyl)-pyrimidin-2-yl]-(2-methoxy-phenyl)-amine]
7 | > 1 µM | > 10 µM | Fc1cccc(Nc2ncc(Cc3c[nH]c4ncc(Cl)cc34)cn2)c1 [Compound P-3017, [5-(5-Chloro-1H-pyrrolo[2,3-b]pyridin-3-ylmethyl)-pyrimidin-2-yl]-(3-fluoro-phenyl)-amine]
8 | < 0.1 µM | < 1 µM | Cc1cnc2[nH]cc(Cc3cnc(Nc4ccc(C(F)(F)F)nc4)nc3)c2c1 [Compound P-3018, [5-(5-Methyl-1H-pyrrolo[2,3-b]pyridin-3-ylmethyl)-pyrimidin-2-yl]-(6-trifluoromethyl-pyridin-3-yl)-amine]
9 | < 1 µM | < 0.1 µM | COc1ccc(Nc2ccc(Cc3c[nH]c4ncc(C)cc34)c(F)n2)cn1 [Compound P-3019, [6-fluoro-5-(5-methyl-1H-pyrrolo[2,3-b]pyridin-3-ylmethyl)-pyridin-2-yl]-(6-methoxy-pyridin-3-yl)-amine]
10 | < 0.1 µM | < 0.1 µM | COc1ccc(Nc2ncc(Cc3c[nH]c4ncc(C)cc34)cn2)cn1 [Compound P-3020, (6-Methoxy-pyridin-3-yl)-[5-(5-methyl-1H-pyrrolo[2,3-b]pyridin-3-ylmethyl)-pyrimidin-2-yl]-amine]
11 | < 0.1 µM | < 1 µM | COc1ccc(Nc2ncc(Cc3c[nH]c4ncc(C)cc34)cn2)cc1 [Compound P-3021, (4-Methoxy-phenyl)-[5-(5-methyl-1H-pyrrolo[2,3-b]pyridin-3-ylmethyl)-pyrimidin-2-yl]-amine]
12 | < 0.1 µM | < 1 µM | COc1cc(Nc2ncc(Cc3c[nH]c4ncc(C)cc34)cn2)ccc1F [Compound P-3022, (4-Fluoro-3-methoxy-phenyl)-[5-(5-methyl-1H-pyrrolo[2,3-b]pyridin-3-ylmethyl)-pyrimidin-2-yl]-amine]
13 | < 0.1 µM | < 1 µM | COc1ccc(Nc2ncc(Cc3c[nH]c4ncc(C)cc34)cn2)cc1F [Compound P-3023, (3-Fluoro-4-methoxy-phenyl)-[5-(5-methyl-1H-pyrrolo[2,3-b]pyridin-3-ylmethyl)-pyrimidin-2-yl]-amine]
14 | < 0.1 µM | < 1 µM | CCCOc1ccc(Nc2ncc(Cc3c[nH]c4ncc(C)cc34)cn2)cc1 [Compound P-3024, [5-(5-Methyl-1H-pyrrolo[2,3-b]pyridin-3-ylmethyl)-pyrimidin-2-yl]-(4-propoxy-phenyl)-amine]
15 | < 0.01 µM | < 0.01 µM | CCc1ccc(Nc2ncc(Cc3c[nH]c4ncc(C)cc34)cn2)cc1 [Compound P-3025, (4-Ethyl-phenyl)-[5-(5-methyl-1H-pyrrolo[2,3-b]pyridin-3-ylmethyl)-pyrimidin-2-yl]-amine]
16 | < 0.1 µM | < 0.1 µM | CCOc1ccc(Nc2ncc(Cc3c[nH]c4ncc(C)cc34)cn2)cc1 [Compound P-3026, (4-Ethoxy-phenyl)-[5-(5-methyl-1H-pyrrolo[2,3-b]pyridin-3-ylmethyl)-pyrimidin-2-yl]-amine]
17 | < 0.1 µM | < 0.1 µM | CCOc1ccc(Nc2ncc(Cc3c[nH]c4ncc(C)cc34)cn2)cn1 [Compound P-3027, (6-Ethoxy-pyridin-3-yl)-[5-(5-methyl-1H-pyrrolo[2,3-b]pyridin-3-ylmethyl)-pyrimidin-2-yl]-amine]
18 | < 0.1 µM | < 0.1 µM | Cc1cnc2[nH]cc(Cc3cnc(Nc4cc(-c5ccc(F)cc5)n[nH]4)nc3)c2c1 [Compound P-3028, [5-(4-Fluoro-phenyl)-2H-pyrazol-3-yl]-[5-(5-methyl-1H-pyrrolo[2,3-b]pyridin-3-ylmethyl)-pyrimidin-2-yl]-amine]
19 | < 1 µM | > 1 µM | Cc1cnc2[nH]cc(Cc3cnc(Nc4cc(C(C)(C)C)n[nH]4)nc3)c2c1 [Compound P-3029, (5-tert-Butyl-2H-pyrazol-3-yl)-[5-(5-methyl-1H-pyrrolo[2,3-b]pyridin-3-ylmethyl)-pyrimidin-2-yl]-amine]
20 | < 0.01 µM | < 0.01 µM | Cc1cnc2[nH]cc(Cc3cnc(Nc4ccc(C(C)(C)C)cc4)nc3)c2c1 [Compound P-3030, (4-tert-Butyl-phenyl)-[5-(5-methyl-1H-pyrrolo[2,3-b]pyridin-3-ylmethyl)-pyrimidin-2-yl]-amine amine]
21 | < 0.01 µM | < 0.01 µM | Cc1cnc2[nH]cc(Cc3cnc(Nc4ccc(C(O)(C(F)(F)F)C(F)(F)F)cc4)nc3)c2c1 [Compound P-3031, 1,1,1,3,3,3-Hexafluoro-2-{4-[5-(5-methyl-1H-pyrrolo[2,3-b]pyridin-3-ylmethyl)-pyrimidin-2-ylamino]-phenyl}-propan-2-ol]
22 | < 1 µM | < 1 µM | Cc1cnc2[nH]cc(Cc3cnc(Nc4cc(C5CC5)n[nH]4)nc3)c2c1 [Compound P-3032, (5-Cyclopropyl-2H-pyrazol-3-yl)-[5-(5-methyl-1H-pyrrolo[2,3-b]pyridin-3-ylmethyl)-pyrimidin-2-yl]-amine]
23 | < 0.01 µM | < 0.1 µM | CSc1ccc(Nc2ncc(Cc3c[nH]c4ncc(C)cc34)cn2)cc1 [Compound P-3033, [5-(5-Methyl-1H-pyrrolo[2,3-b]pyridin-3-ylmethyl)-pyrimidin-2-yl]-(4-methylsulfanyl-phenyl)-amine]
24 | < 0.1 µM | < 0.1 µM | Cc1cnc2[nH]cc(Cc3cnc(Nc4ccc(S(C)(=O)=O)cc4)nc3)c2c1 [Compound P-3034, (4-Methanesulfonyl-phenyl)-[5-(5-methyl-1H-pyrrolo[2,3-b]pyridin-3-ylmethyl)-pyrimidin-2-yl]-amine]
25 | – | < 0.1 µM | O=C(c1ccc(Nc2ccc(C3CC3)nc2)nc1F)c1c[nH]c2ncccc12 [Compound P-3052, [6-(6-Cyclopropyl-pyridin-3-ylamino)-2-fluoro-pyridin-3-yl]-(1H-pyrrolo[2,3-b]pyridin-3-yl)-methanone]
26 | – | < 0.1 µM | Fc1nc(Nc2ccc(C3CC3)nc2)ccc1Cc1c[nH]c2ncccc12 [Compound P-3053, (6-Cyclopropyl-pyridin-3-yl)-[6-fluoro-5-(1H-pyrrolo[2,3-b]pyridin-3-ylmethyl)-pyridin-2-yl]-amine]
